Laboratory results published in patent publication US20060240127A1, “Use of agomelatine in obtaining medicaments intended for the treatment of bipolar disorders” (priority 2005, published 2006).

Tested on: patients suffering from bipolar disorders of type I
Assay: Clinical study of agomelatine in type I bipolar patients treated with lithium or valproate
Format: in vivo
Method: This study was carried out in 21 patients suffering from bipolar disorders of type I, treated for at least 6 months with lithium (n =14) or valproate (n=7). Treatment for 6 weeks with agomelatine (25 mg/day) was carried out. Of these patients, 19 continued treatment beyond the 6 weeks of acute treatment, and 11 of those continued treatment up to 1 year.

manic or hypomanic episodes observed after the 6 weeks of treatment (19 patients who continued beyond 6 weeks, 11 of them up to 1 year, level compatible with a mood stabiliser): three
Compound: COc1ccc2cccc(CCNC(C)=O)c2c1 [agomelatine, N-[2-(7-methoxy-1-naphthyl)ethyl]acetamide]
patients in remission at the end of the one year treatment period (11 patients who continued treatment up to 1 year, agomelatine 25 mg/day with lithium or valproate): 10 out of the 11
patients responded positively to the treatment (21 type I bipolar patients on lithium or valproate, agomelatine 25 mg/day, 6 weeks treatment): 81%
patients responded positively by the end of one week of treatment (21 type I bipolar patients on lithium or valproate, agomelatine 25 mg/day, end of one week): about 50%
